Experiments:
[1] = Stability of compound in PBS buffer at pH 7.4 at 100 uM incubated for 72 hrs under dark condition by RP-HPLC analysis; type: physicochemical; conditions: read-out: Stability
[2] = Photorelease activity in PBS buffer at pH 7.4 assessed as release of CO using 3',6'-Bis(allyloxy)-3H-spiro(isobenzofuran-1,9'-xanthen)-3-one fluorescent probe at 500 uM irradiated with >= 365 nm Hg lamp for 30 mins in presence of PdCl2 by absorption spectroscopy; type: physicochemical; conditions: pH 7.4, 0.5 h
[3] = Photorelease activity in PBS buffer at pH 7.4 assessed as release of CO at 500 uM irradiated with pulsed laser at 730 nm for 30 mins by absorption spectroscopy; type: physicochemical; conditions: pH 7.4, 0.5 h
[4] = Drug uptake in mouse B16-F10 cells assessed as drug internalization by measuring blue fluorescence at 20 uM incubated for 4 hrs followed by propidium iodide staining based confocal laser scanning microscopy; type: ADME, cell-based; conditions: b16-f10, 4 h
B16-F10 [5] = assay: Photorelease activity in mouse B16-F10 cells assessed as uncaging of active molecules of drug by measuring green fluorescence at 20 uM incubated for 4 hrs irradiated with >= 365 nm Hg lamp for 5 mins and further incubated for 4 hrs by propidium iodide staining based confocal laser scanning microscopy; type: functional, cell-based; conditions: time 8.0 hrs
B16-F10 [6] = assay: Cytotoxicity against mouse B16-F10 cells assessed as cell viability at 2.5 uM irradiated with >= 365 nm Hg lamp for 5 mins after 6 hrs post-treatment and further incubated for 72 hrs by MTT assay; type: functional; conditions: B16-F10, light or radiation study, time 78 hrs, read-out: Activity
HEK293 [7] = assay: Induction of apoptosis in HEK293 cells assessed as viable cells at 5 uM incubated for 24 hrs by annexin-V-FITC and PI staining based flow cytometry analysis (reference value: 99.9 %); type: functional; conditions: Homo sapiens, read-out: Activity
HEK293 [8] = assay: Induction of apoptosis in HEK293 cells assessed as early apoptotic cells at 5 uM incubated for 24 hrs by annexin-V-FITC and PI staining based flow cytometry analysis (reference value: 0.1 %); type: functional, Homo sapiens
HEK293 [9] = assay: Induction of apoptosis in HEK293 cells assessed as necrotic cells at 5 uM incubated for 24 hrs by annexin-V-FITC and PI staining based flow cytometry analysis (reference value: 0 %); type: functional, Homo sapiens
HEK293 [10] = assay: Induction of apoptosis in HEK293 cells assessed as early apoptotic cells at 5 uM with light irradiation incubated for 24 hrs by annexin-V-FITC and PI staining based flow cytometry analysis (reference value: 0.1 %); type: functional, Homo sapiens
HEK293 [11] = assay: Induction of apoptosis in HEK293 cells assessed as late apoptotic cells at 5 uM with light irradiation incubated for 24 hrs by annexin-V-FITC and PI staining based flow cytometry analysis (reference value: 0 %); type: functional, Homo sapiens
HEK293 [12] = assay: Induction of apoptosis in HEK293 cells assessed as necrotic cells at 5 uM with light irradiation incubated for 24 hrs by annexin-V-FITC and PI staining based flow cytometry analysis (reference value: 0 %); type: functional, Homo sapiens
B16-F10 [13] = assay: Induction of apoptosis in mouse B16-F10 cells assessed as necrotic cells at 5 uM incubated for 24 hrs by annexin-V-FITC and PI staining based flow cytometry analysis (reference value: 0 %); type: functional
B16-F10 [14] = assay: Induction of apoptosis in mouse B16-F10 cells assessed as early apoptotic cells at 5 uM with light irradiation incubated for 24 hrs by annexin-V-FITC and PI staining based flow cytometry analysis (reference value: 0 %); type: functional
B16-F10 [15] = assay: Induction of apoptosis in mouse B16-F10 cells assessed as late apoptotic cells at 5 uM with light irradiation incubated for 24 hrs by annexin-V-FITC and PI staining based flow cytometry analysis (reference value: 0.1 %); type: functional
B16-F10 [16] = assay: Induction of apoptosis in mouse B16-F10 cells assessed as necrotic cells at 5 uM with light irradiation incubated for 24 hrs by annexin-V-FITC and PI staining based flow cytometry analysis (reference value: 0 %); type: functional
B16-F10 [17] = assay: Biodistribution in tumor site of C57BL/6 mouse model harboring mouse B16-F10 cells at 0.4 mg/kg, iv irradiated with >= 365 nm Hg lamp for 10 mins measured after 24 hrs post-administration by fluorescence based assay; type: ADME, organism-based; conditions: in vivo, 24.17 h, time 1450 min
[18] = Biodistribution in kidney of C57BL/6 mouse model harboring mouse B16-F10 cells at 0.4 mg/kg, iv irradiated with >= 365 nm Hg lamp for 10 mins measured after 24 hrs post-administration by fluorescence based assay; type: ADME, organism-based; conditions: in vivo, 24.17 h, time 1450 min
[19] = Biodistribution in heart of C57BL/6 mouse model harboring mouse B16-F10 cells at 0.4 mg/kg, iv irradiated with >= 365 nm Hg lamp for 10 mins measured after 24 hrs post-administration by fluorescence based assay; type: ADME, organism-based; conditions: in vivo, 24.17 h, time 1450 min
[20] = Biodistribution in liver of C57BL/6 mouse model harboring mouse B16-F10 cells at 0.4 mg/kg, iv irradiated with >= 365 nm Hg lamp for 10 mins measured after 24 hrs post-administration by fluorescence based assay; type: ADME, organism-based; conditions: in vivo, 24.17 h, time 1450 min
[21] = Biodistribution in lung of C57BL/6 mouse model harboring mouse B16-F10 cells at 0.4 mg/kg, iv irradiated with >= 365 nm Hg lamp for 10 mins measured after 24 hrs post-administration by fluorescence based assay; type: ADME, organism-based; conditions: in vivo, 24.17 h, time 1450 min
[22] = Biodistribution in spleen of C57BL/6 mouse model harboring mouse B16-F10 cells at 0.4 mg/kg, iv irradiated with >= 365 nm Hg lamp for 10 mins measured after 24 hrs post-administration by fluorescence based assay; type: ADME, organism-based; conditions: in vivo, 24.17 h, time 1450 min
[23] = Toxicity in C57BL/6J mouse model harboring mouse B16-F10 cells assessed as change in movement at 0.4 mg/kg, iv administered alternate days for 24 days followed by irradiation with pulsed laser at 730 nm for 10 mins after 24 hrs each post-injection by hematoxylin and eosin staining based assay; type: organism-based; conditions: in vivo, 600 h, 0.73 µM, time 25 day
[24] = Toxicity in C57BL/6J mouse model harboring mouse B16-F10 cells assessed as kidney tissue necrosis at 0.4 mg/kg, iv administered alternate days for 24 days followed by irradiation with pulsed laser at 730 nm for 10 mins after 24 hrs each post-injection by hematoxylin and eosin staining based assay; type: organism-based; conditions: in vivo, 600 h, 0.73 µM, time 25 day
[25] = Toxicity in C57BL/6J mouse model harboring mouse B16-F10 cells assessed as lung tissue necrosis at 0.4 mg/kg, iv administered alternate days for 24 days followed by irradiation with pulsed laser at 730 nm for 10 mins after 24 hrs each post-injection by hematoxylin and eosin staining based assay; type: organism-based; conditions: in vivo, 600 h, 0.73 µM, time 25 day

Molecule CCn1c2ccc(-c3coc(=O)o3)cc2c2cc(-c3coc(=O)o3)ccc21 has a remaining at 72 h, 100 µM [1] of 96%, a Drug metabolism [2] of 12 ppm and a Drug metabolism [3] of 4.5 ppm. The Drug uptake [4] was “Active”, the Drug metabolism (B16-F10 [5]) was 100% and the viability at 2.5 µM (B16-F10 [6]) was 21%. For the same molecule, the viability at 5 µM (HEK293 [7]) was 98.9%, the Activity (HEK293 [8]) was 0.9% and the Activity (HEK293 [9]) was 0%. It also gave an Activity (HEK293 [10]) of 46.3%, an Activity (HEK293 [11]) of 7.3% and an Activity (HEK293 [12]) of 0%. The Activity (B16-F10 [13]) was 0%, the Activity (B16-F10 [14]) was 32.8% and the Activity (B16-F10 [15]) was 15.4%. The Activity (B16-F10 [16]) was 0.5%, the Drug uptake (B16-F10 [17]) was “Active” and the Drug uptake [18] was “Active”. The Drug uptake [19] was “Active”, the Drug uptake [20] was “Active” and the Drug uptake [21] was “Active”. For the same molecule, the Drug uptake [22] was “Active”, the Activity [23] was “Non-Toxic” and the Activity [24] was “Non-Toxic”. For the same molecule, the Activity [25] was “Non-Toxic”.

Reference: ChEMBL document CHEMBL5042522, “One- and Two-Photon Uncaging of Carbon Monoxide (CO) with Real-Time Monitoring: On-Demand Carbazole-Based Dual CO-Releasing Platform to Test over Single and Combinatorial Approaches for the Efficient Regression of Orthotopic Murine Melanoma In Vivo” (J Med Chem, 2022)
